Measured values as given in patent publication US20110053900A1, “PROGESTERONE ANTAGONISTS SUCH AS CDB-4124 IN THE TREATMENT OF BREAST CANCER” (Repros Therapeutics inc, priority 2008, published 2011).

Tests used:
T47Darom cells = assay: Crystal violet cell proliferation assay in aromatase-overexpressing T47D cells; format: cell-based; settings: Homo sapiens, 96 h, 4 μM alone, 4 days
Description: Untreated cells were used as a control. The crystal violet assay was used to measure cell proliferation. The dye in this assay, crystal violet, stains DNA. Upon solubilization, the amount of dye taken up by the cells can be quantitated in a spectrophotometer.

[1] = Serum corticosterone by ELISA; format: in vivo, rat; settings: 20 or 10 mg/kg
Procedure: The animals were assessed three times for their levels of progesterone: initially, when they were about to go on treatment; a second time after 21 days of treatment; and finally after treatment at sacrifice which was 2-4 days after the last s.c. injection. All blood samples were taken by heart puncture; serum was prepared and held frozen at −40° C. The levels of the steroid hormones progesterone, cortisol, and corticosterone were determined by ELISA.
The concentrations of steroid hormones were determined three times during the study: before the beginning of treatments, after 21 days of treatment and finally after treatment at sacrifice which was 2-4 days after the last s.c. injection. All samples were taken by heart puncture. Serum was obtained and held frozen at −40° C. The levels of steroid hormones were determined by ELISA.
Corticosterone is the most abundant glucocorticoid in rats. The effects of the SPRMs on cortisol may be secondary to strong effects on corticosterone. […] The levels of corticosterone were 10-40 times higher than the levels of cortisol. However, almost no difference between groups with respect to mean corticosterone levels was observed. […] There was no statistical difference in levels of corticosterone between animals with tumors and without tumors at either 21-days (p=0.94, t-test, two-tailed) or at sacrifice (p=0.37, t-test, two-tailed).

[2] = Estrogen levels in human females during administration; format: in vivo; settings: administration periods of at least six months
[3] = Animal weight during the study; format: in vivo; settings: weighed weekly, 27-week study period
Description: The weights of the control animals were compared to those receiving hormonal treatment to better assess toxicity, especially that due to CDB-4124. The animals were weighed weekly during the 27-week study period.

[4] = target: T1, glucocorticoid receptor (rbGR) (Oryctolagus cuniculus, UniProt P59667); assay: Glucocorticoid receptor binding; design: species or system rabbit
T1 construct: cytosol containing PR or GR were prepared in TEGMD buffer; from tissue; host or cells: thymus of estradiol-primed immature rabbits (cytosol)
T1 sequence (P59667 1-772): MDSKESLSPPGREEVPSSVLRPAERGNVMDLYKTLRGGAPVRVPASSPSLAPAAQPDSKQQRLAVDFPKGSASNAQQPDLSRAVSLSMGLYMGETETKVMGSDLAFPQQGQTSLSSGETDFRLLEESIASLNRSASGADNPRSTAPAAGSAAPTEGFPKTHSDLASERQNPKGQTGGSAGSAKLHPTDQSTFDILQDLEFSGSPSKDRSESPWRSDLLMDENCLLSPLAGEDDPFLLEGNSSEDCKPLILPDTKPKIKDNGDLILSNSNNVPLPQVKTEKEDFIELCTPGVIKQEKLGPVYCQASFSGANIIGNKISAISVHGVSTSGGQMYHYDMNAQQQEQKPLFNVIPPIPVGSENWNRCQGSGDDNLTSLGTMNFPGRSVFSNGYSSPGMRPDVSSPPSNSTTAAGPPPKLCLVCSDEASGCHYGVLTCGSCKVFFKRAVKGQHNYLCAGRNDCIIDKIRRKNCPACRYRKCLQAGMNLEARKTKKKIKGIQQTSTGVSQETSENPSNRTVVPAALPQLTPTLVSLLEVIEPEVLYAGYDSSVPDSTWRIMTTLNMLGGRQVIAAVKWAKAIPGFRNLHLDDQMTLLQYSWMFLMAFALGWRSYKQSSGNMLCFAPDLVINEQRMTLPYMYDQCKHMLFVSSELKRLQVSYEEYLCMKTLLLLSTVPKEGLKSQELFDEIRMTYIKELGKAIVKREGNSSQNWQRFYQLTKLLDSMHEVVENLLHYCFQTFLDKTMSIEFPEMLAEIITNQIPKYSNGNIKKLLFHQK
Procedure: Certain antiprogestins were tested in receptor-binding assays for their ability to bind rabbit progesterone receptor (rbPR) and glucocorticoid receptor (rbGR). […] For PR binding, the cytosol was incubated with 6 nM 1,2-[^3H]progesterone (50.0 Ci/mmole) and competitors were added at concentrations from 2 to 100 nM. For binding to GR, the cytosol was incubated with 6 nM 6,7-[^3H]-dexamethasone (40 Ci/mmol) and test compounds were added at concentrations from 20 to 100 nM. After overnight incubation at 4° C., bound and unbound [^3H] steroids were separated by addition of dextran-coated charcoal and centrifugation at 2100×g for 15 min at 4
C. Supernatants containing the [3H]-steroid receptor complexes were decanted into vials containing 4 ml Optifluor (Packard Instrument Co.), vortexed, equilibrated in a liquid scintillation counter for 30 minutes and then counted for 2 minutes. […] The standards for the PR and GR assays were unlabeled progesterone and dexamethasone, respectively.

estrogen receptor (ER) = assay: Expression of estrogen receptor in tumors (IHC); format: in vivo, rat; settings: 10 mg/kg
Procedure: (§1) The tumors that were evaluated for proliferation and apoptosis were also assessed for expression of estrogen and progesterone receptors by immunohistochemistry (IHC). The percentage of cells positive for ER and PR was determined and analyzed. Tumors were grouped into four different categories: tumors with 0% of cells expressing ER, tumors with 10% of cells expressing ER, tumors with 15 to 30% of cells expressing ER and tumors with 30-50% of cells expressing ER. In general, untreated tumors consistently expressed ER. Out of 12 tumors analyzed, all 12 expressed ER. Four out of these 12 tumors contained 30-50% ER-positive cells.

[5] = test system: progesterone receptor (PR); assay: Expression of progesterone receptor in tumors (IHC); format: in vivo, rat; settings: 10 mg/kg
Procedure: as §1
Untreated tumors consistently expressed PR (12/12 tumors). In general, untreated tumors expressed both receptors, ER and PR, therefore it is possible that many malignant tumors are expressors of these two transcription factors. […] In general, long term treatment with CDB-4124 tends to drive down the level of PR in tumors, whereas progesterone tends to work in the opposite direction. Thus, tumors maintain progesterone responsiveness in the presence of progesterone.

| PR expression in tumors (in words) [5] | Compound | inhibition at 4 µM (T47Darom cells) [%] | effect on serum corticosterone (in words) [1] | estrogen levels in human females (in words) [2] | toxicity by animal weight, treated vs. control (in words) [3] | anti-glucocorticoid receptor activity / glucocorticoid receptor binding (in words) [4] | number of cells expressing ER in tumors (in words) (estrogen receptor (ER)) |
| --- | --- | --- | --- | --- | --- | --- | --- |
|  | COCC(=O)[C@@]1(OC(C)=O)CC[C@H]2[C@@H]3CCC4=CC(=O)CCC4=C3[C@@H](c3ccc(N(C)C)cc3)C[C@@]21C [CDB-4124, 21-methoxy-17α-acetoxy-11β-(4 N,N-dimethylaminophenyl)-19-norpregna-4,9-diene-3,20-dione] | < 30 | no strong effect | maintain estrogen levels in the normal range | not toxic, even at a high dose level |  |  |
| neutral for PR | CC#C[C@]1(O)CC[C@H]2[C@@H]3CCC4=CC(=O)CCC4=C3[C@@H](c3ccc(N(C)C)cc3)C[C@@]21C [RU 486, mifepristone, reference compound] |  |  |  |  | moderately active in glucocorticoid receptor binding | lowered the number of cells that express ERs |
